Results published in patent US10752647B2, “N-phosphonoxymethyl prodrugs of hydroxyalkyl thiadiazole derivatives” (DAIICHI SANKYO COMPANY, LIMITED, priority 2017, dated 2020).
Converted amounts (≈) assume the structure as drawn. Read-outs that look alike come from different tables or passages of the source. Blank lines part the entries; values can stand above or below the compound they belong to.

Tests used:
[1] = Solubility in Japanese Pharmacopeia First Fluid (JP1) and Second Fluid (JP2); format: physicochemical; conditions: thermodynamic from solid, room temperature
Protocol: Method of Testing Solubility in Water and Neutral Buffer A 10 mmol/L solution of the test compound was prepared in DMSO and dispensed 100 μL of 10 mmol/L DMSO stock solutions into labeled glass tubes in duplicate, one for Japanese Pharmacopeia First Fluid (JP1) and second for Japanese Pharmacopeia Second Fluid (JP2). After evaporation of DMSO from each tube, 500 μL of JP1 and JP2 fluid were added in each tube, respectively. These tubes were sonicated for 1 minute and placed on shaker for 30 minutes with an interval of 30 seconds at every 5 minute. Tubes were placed in dark at room temperature for 1 hour and solution was filtered through membrane filter. The filtrate was diluted 2-fold and 10-fold. The resulting test solutions was analyzed and quantified against the standards using UPLC (standard preparation-10 mmol/L solution in DMSO is serially diluted with 50% aqueous acetonitrile solution to prepare 2 solutions; 100 μmol/L standard solution and 5 μmol/L standard solutions).

[2] = Conversion efficiency / PK profile after IV dose in rats (Compounds No. 1 and No. 2); format: in vivo; conditions: 15.3 mg/kg; Rat, plasma, prodrug IV 15.300 mg/kg, analyte prodrug; read-out: Compound No. 1 AUCinf
Protocol: Method of Testing Conversion Efficiency Determination of conversion efficiency of Compound No. 1 and Compound No. 2 was conducted in rodents (mice and rats) and non-rodents (monkeys and dogs). Animals were divided in two groups with two animals in each group. One group received an intravenous (IV) dose of prodrug and the other group received an IV dose of parent compound. The dose of prodrug was taken as molar equivalent dose of parent compound. Serial blood sampling was carried out at 0.083, 0.33, 1, 2, 4, 8 and 24 h post IV dose from both the animal groups. Blood samples were centrifuged to harvest plasma. Plasma samples were stored at −80° C. until analysis. Plasma samples of prodrug administered animals were simultaneously analyzed for both analytes (prodrug and parent compound) using LC-MS/MS. Area under the curve (AUC) of plasma concentrations versus time profiles were calculated in WinNonlin software and percentage conversion efficiency was determined using the formula: Percentage conversion efficiency=(AUCiv of parent compound (from prodrug administered samples)×100/(AUCiv of parent compound (from parent compound administered samples). PK profile of Compounds No. 1 and No. 2 in rats, dogs and monkeys are depicted in Table 5 and 6, respectively (also shown in FIGS. 1 and 2).

MRSA 562 = assay: Mouse lung infection model by MRSA 562 (neutropenic Swiss mice); format: in vivo, Staphylococcus aureus
Protocol: a) Method for Testing Therapeutic Effect of Compounds Using Mouse Lung Infection Model by MRSA 562
Mice were rendered neutropenic with two intra-peritoneal injections (IP) of cyclophosphamide on day −4 and day −1 prior to infection at the dose rate of 150 mg and 100 mg per kg body weight. Overnight grown MRSA 562 was diluted 1:10 in fresh Brain Heart Infusion broth and mixed 1:1 with 5% hog mucin. The bacterial suspension (3.16×10^6/mouce/50 μL) was then inoculated to each pre-anaesthetized mice (xylazine 5 mg/kg and ketamine 100 mg/kg mixture) into the nares of Swiss mice (4 to 6-week-old, Vivo Biotech Limited, Hyderabad, India), n=5 mice per group). The test compound was administered to the mice once, twice and four times at an interval of 24, 12 and 6 hr, respectively. The number of bacteria in the lungs was determined in the non-treated group immediately before initial administration of the test compound (pre-control) and in the non-treated group (post-control) and the test compound-administered group on the next day of administration of the test compound and infection. A change in the number of bacteria in the lungs was used as an index of therapeutic effect.

MRSA 02541 [3] = assay: Neutropenic mouse thigh infection model, MRSA 02541; format: in vivo, Staphylococcus aureus
Protocol: (§1) (b) Method for Testing Therapeutic Effect of Compounds Against MRSA 02541 and VRE IV258 21076 Using Neutropenic Mouse Thigh Infection Model
(§2) Swiss Webster mice of 4 to 6-week-old were used for this experiments (Vivo Biotech Limited, Hyderabad, India, n=5 mice per group). Mice were rendered neutropenic as described above. Overnight grown culture of MRSA 02541 on Mueller-Hinton broth (MHB) was adjusted to 0.5 Mac Farland. The suspension was then diluted 1:100 in fresh MHB and 100 μl was injected intra-muscularly in the right thigh muscles of the mice (n=5/group). In case of VRE IV 258-21076 culture was mixed with 10% hog mucin in 1:1 proportion. The bacterial inocula were confirmed by quantitative culture analyses and found to be 3×10^6 CFU for MRSA and 2×10^6 for VRE IV258-21076 per mL. Treatment started 2 h post infection. The test compound was administered to the mice one to eight times at an interval of 3 to 24 hr. The number of bacteria in the thigh muscle was counted for the non-treated group immediately before initial administration of the test compound (pre-control), for the non-treated group (post-control) and for the test compound-administered group on the next day of administration of the test compound and infection. A change in the number of bacteria in the thigh was used as an index of therapeutic effect.

VRE IV258 21076 = assay: Neutropenic mouse thigh infection model, VRE IV258 21076; format: in vivo, Enterococcus
Protocol: as §1, §2

MRSA 02541 [4] = assay: Neutropenic Sprague Dawley rat thigh infection model, MRSA 02541; format: in vivo, Staphylococcus aureus; conditions: for log10 kill (number of bacteria in the thigh): 25 mg/kg, IV qid
Protocol: c) Method for Testing Therapeutic Effect of Compounds Against MRSA 02541 Using Neutropenic Sprague Dawley Rat Thigh Infection Model
Sprague Dawley rats of 4 to 6-week-old were used for this experiments (Vivo Biotech Limited, Hyderabad, India, n=4 rats per group). Rats were rendered neutropenic by intraperitoneal injection of cyclophosphamide. Overnight grown culture of MRSA 02541 in MHB was adjusted to 0.5 Mac Farland. The suspension was then diluted 1:10 in fresh MHB and 200 μl was injected intra-muscularly in the right thigh muscles of the rat. The bacterial inocula were confirmed by quantitative culture analyses and found to be 6×10^6 CFU per rat thigh muscle. Treatment started 2 h post infection. The test compound was administered to the rat four times at an interval of 6 hr. The number of bacteria in the thigh muscle was counted for the non-treated group immediately before initial administration of the test compound (2 h pre-control), for the non-treated group (26 h post-control) and for the test compound-administered group on the next day of administration of the test compound and infection. A change in the number of bacteria in the thigh was used as an index of therapeutic effect.

[5] = test system: Clostridium difficile 2009155, a NAP1/027 strain; assay: Hamster CDI model; format: in vivo; conditions: 0.3 mg/kg/day for 5 days
Protocol: d) Method for Testing Therapeutic Effect of Compounds in Hamster CDI Model
The in vivo efficacy of Compound No. 1 was evaluated in a hamster CDI model caused by Clostridium difficile 2009155, a NAP1/027 strain. The Syrian hamsters (7-9 weeks old, National Centre for Laboratory Animal Sciences, National Institute Nutrition, Hyderabad, India.) were acclimatized at least 7 days prior the experiment. Hamsters primed with a single subcutaneous injection of clindamycin (30 mg/kg) 1 day prior to infection. Hamsters were infected by oral gavage with 1 mL of spore suspension (2-3×10^5) prepared in PBS. The test compounds were prepared using the 0.25 w/v % Methyl Cellulose Solution for oral administration and 10% HP ß-CD for SC administration and treatment was started 6 h post infection at an interval of 24 h for 5 days. Hamsters were administered a dose of 0.03-0.3 mg/kg/day for 5 days. The death and survival time of the hamsters treated with test compound administered group and non-treated group (vehicle-control) were recorded once daily for 35 days and were compared. A change in the survival time was used as an index of therapeutic effect.

[6] = Solubility of parent compounds and prodrugs in phosphate buffer; format: physicochemical; conditions: aqueous buffer, thermodynamic from solid; parent compound, phosphate buffer, 25° C., more than 4 weeks, pH 7.0
Protocol: Parent compounds: About 5 mg of parent compounds (biologically active forms of prodrugs) were added to 950 μL of phosphate buffer, and mixed vigorously for 1 hour at 25° C. Then, these samples were stored at 25° C. for more than 4 weeks and filtered to remove undissolved parent compounds. Next, these solutions were diluted with 50% aqueous acetonitrile solution. The resulting test solutions were assayed by HPLC. Prodrugs: About 30 mg of prodrugs were added to 120 μL of phosphate buffer, and mixed vigorously for 1 hour at 25° C. After shaking, pH of these solutions were adjusted at pH 7.0 by 1 mol/L NaOH solution. Then, the total volume were adjusted to 280 μL with purified water. Next, these solutions were stored at 25° C. for more than 4 weeks and filtered to remove undissolved compounds. These solutions were diluted with 50% aqueous acetonitrile solution. The resulting test solutions were assayed by HPLC.

[7] = Conversion efficiency / PK profile after IV dose in rats (Compounds No. 5 and No. 7); format: in vivo; conditions: Rat, plasma, parent compound IV 1 mg/kg; read-out: Parent compound AUCinf
Protocol: Determination of conversion efficiency of Compound No. 5 and Compound No. 7 was conducted in rats. Animals were divided in two groups with two animals in each group. One group received an IV dose of prodrug and the other group received an IV dose of parent compound. Serial blood sampling was carried out at 0.08, 0.25, 0.5, 1, 2, 4, 7, and 24 h post dose from both of the animal groups. Blood samples were centrifuged to harvest plasma. Plasma samples of prodrug administered animals were simultaneously analyzed for both analytes (prodrug and parent compound) using LC-MS/MS. AUC of plasma concentrations versus time profiles were calculated in WinNonlin software and percentage conversion efficiency was determined using the formula: Percentage conversion efficiency=(AUCiv of parent compound from prodrug administered samples)/(AUCiv of parent compound from parent compound administered samples)/(molecular weight of parent compound)×(molecular weight of prodrug)×100. PK profile of Compound No. 5 and Compound No. 7 in rats are depicted in Table 7.

animal infection models = conditions: compound of WO 2009/084614; cited from earlier work
[8] = Solubility of parent compounds and prodrugs in phosphate buffer; format: physicochemical; conditions: aqueous buffer, thermodynamic from solid; prodrug, phosphate buffer adjusted with NaOH, 25° C., more than 4 weeks, pH 7.2

SMILES: CCc1c(Cl)nc(C(=O)N[C@@H]2CCN(c3nnc(C(C)(C)O)s3)C[C@@H]2OC)n1COP(=O)(O)O [Compound No. 1, [4-Chloro-5-ethyl-2-({(3S,4R)-1-[5-(2-hydroxypropan-2-yl)-1,3,4-thiadiazol-2-yl]-3-methoxypiperidin-4-yl}carbamoyl)-1H-imidazol-1-yl]methyl dihydrogen phosphate]
- solubility at 30 min ([1]; pH 1.2, simulated gastric fluid, Japanese Pharmacopeia First Fluid (JP1), read-out: Solubility JP1): > 1280 µg/mL
- solubility at 30 min ([1]; pH 6.8, aqueous buffer, Japanese Pharmacopeia Second Fluid (JP2), read-out: Solubility JP2): > 1320 µg/mL
- AUC(0-inf) [2]: 270 ng·h/mL
- log10 kill (number of bacteria in the lungs) (MRSA 562; 6.25 mg/kg/dose, SC q6h, compared to 1 hour pre-control): 1.33 log10
- log10 kill (number of bacteria in the lungs) (MRSA 562; 6.25 mg/kg/dose, SC q6h, compared to 25 hour post control): 2.52 log10
- log10 kill (number of bacteria in the lungs) (MRSA 562; 12.5 mg/kg/dose, SC, q6h, compared to 1 hour pre-control): 1.76 log10
- log10 kill (number of bacteria in the lungs) (MRSA 562; 12.5 mg/kg/dose, SC, q6h, compared to 25 hour post control): 2.95 log10
- Therapeutic effect (change in the number of bacteria in the lungs) (MRSA 562; mouse lung infection, MRSA 562): exhibited the therapeutic effect
- Cidal potential (number of bacteria in the thigh) (MRSA 02541 [3]; 200 mg/kg/dose q24h, 100 mg/kg/dose q24h, and 50 mg/kg/dose q24h and their fractions irrespective of dosing schedule): cidal potential
- Therapeutic effect (change in the number of bacteria in the thigh) (MRSA 02541 [3]; neutropenic mouse thigh, MRSA 02541): exhibited the therapeutic effect
- Cidal potential (number of bacteria in the thigh) (VRE IV258 21076; fractionated doses 50 mg/kg/dose q12h, 25 mg/kg/dose q6h, 12.5 mg/kg/dose q3h): cidal potential
- Therapeutic effect (change in the number of bacteria in the thigh) (VRE IV258 21076; neutropenic mouse thigh, VRE IV258 21076): exhibited the therapeutic effect
- log10 kill (number of bacteria in the thigh) (MRSA 02541 [4]; compared to 2 hours pre-control): 1 log10
- log10 kill (number of bacteria in the thigh) (MRSA 02541 [4]; compared to 26 hours post control): 2.99 log10
- Therapeutic effect (change in the number of bacteria in the thigh) (MRSA 02541 [4]; neutropenic rat thigh, MRSA 02541): exhibited the therapeutic effect
- Survival on day 35 [5]: 100%

SMILES: CCO[C@H]1CN(c2nncs2)CC[C@H]1NC(=O)c1nc(Cl)c(CC)[nH]1 [Compound No. 150]
- Efficacy in animal infection models (animal infection models): not being efficacious

SMILES: CCc1[nH]c(C(=O)N[C@@H]2CCN(c3nnc([C@H](O)CO)s3)C[C@@H]2OC)nc1Cl [Compound C, 4-chloro-N-[(3S,4R)-1-{5-[(1R)-1,2-dihydroxyethyl]-1,3,4-thiadiazol-2-yl}-3-methoxypiperidin-4-yl]-5-ethyl-1H-imidazole-2-carboxamide]
- solubility [6]: 2440 µg/mL (≈ 5.67 mM)
- AUC(0-inf) [7]: 990 ng·h/mL

Results, then the compound that gave them:

- solubility [6]: 752 µg/mL (≈ 1.81 mM)
- AUC(0-inf) [7]: 3110 ng·h/mL
SMILES: CCc1[nH]c(C(=O)N[C@@H]2CCN(c3nnc(C(C)O)s3)C[C@@H]2OC)nc1Cl (stereo partly drawn) [Compound D, 4-chloro-5-ethyl-N-{(3S,4R)-1-[5-(1-hydroxyethyl)-1,3,4-thiadiazol-2-yl]-3-methoxypiperidin-4-yl}-1H-imidazole-2-carboxamide]

- solubility [8]: 102000 µg/mL
SMILES: CCc1c(Cl)nc(C(=O)N[C@@H]2CCN(c3nnc([C@@H](O)CO)s3)C[C@@H]2OC)n1COP(=O)(O)O [Compound No. 9, [4-Chloro-2-({(3S,4R)-1-[5-(1,2-dihydroxyethyl)-1,3,4-thiadiazol-2-yl]-3-methoxypiperidin-4-yl}carbamoyl)-5-ethyl-1H-imidazol-1-yl]methyl dihydrogen phosphate]
